From patent US20060122260A1, “Intermediates for aromatic polyketides as selective anticancer and antiviral agents” (priority 2002, published 2006)
Converted amounts (≈) assume the structure as drawn. “Also recorded” adds a separate entry of the source.

Tests used:
MES-SA = experiment: Typical cytotoxicity screen, MES-SA
pKa = type: physicochemical; conditions: comparable to acetic acid
herpes simplex (HSV) = experiment: Activity testing in human virus models: HSV; type: cell-based, herpes simplex virus; conditions: for activity against virus: HSV, concentrations tested 1 μM and 100 μM; for inhibition % 100 μM / inhibition at 1 µM: Herpes (HSV); for inhibition at 1 µM: Homo sapiens
Description: (§1) The results obtained from the parvovirus model encouraged us to carry out the bioactivity tests using human viruses as targets. Selected RNA- and DNA-viruses were tested; herpes simplex (HSV), adenovirus, influenza B, RS virus, cytomegalovirus (CMV), and CBV5 virus. […] The concentrations tested were 1 μM and 100 μM. The cytotoxic effect was not found using 1 μM of S2502 or S2507. Instead, 100 μM of S2502 was toxic to the cells used for CBV5 and HSV infection, and 100 μM of S2507 was toxic to the cells used for HSV infection.
(§2) S2507 and S2502 were further tested in human virus models: herpes simplex (HSV), adenovirus, influenza B, RS virus, cytomegalovirus and CBV5 virus. […] The compounds were active when administered simultaneously or before an infection (prophylactic) and half an hour after the infection. […] However, in HSV 100 μM concentration was toxic.

Stability = type: physicochemical; conditions: for stability in purification process and bioassays: typical conditions used in the purification process and in bioassays
Text: It is the methyl ester of the S2507 acid.

[1] = test system: control cultivations without virus; experiment: Cytotoxic effect on cells in the human virus tests (control cultivations without virus); conditions: for cytotoxic effect: 1 μM; for tolerance of control cultivations without virus: utilized drug concentrations (100 and 1 μM)
CBV5 virus = experiment: Activity testing in human virus models: CBV5; type: cell-based; conditions: for inhibition at 1 µM: CBV5, 1 μM; for activity against virus: CBV5 virus, concentrations tested 1 μM and 100 μM
Description: as §1, §2

cytomegalovirus (CMV) = experiment: Activity testing in human virus models: cytomegalovirus; type: cell-based; conditions: for activity against virus: CMV, concentrations tested 1 μM and 100 μM; for inhibition at 1 µM / inhibition at 100 µM: Human betaherpesvirus 5, Cytomegalo
Description: as §1, §2

adenovirus = experiment: Activity testing in human virus models: adenovirus; type: cell-based; conditions: for activity against virus: adenovirus, concentrations tested 1 μM and 100 μM; for inhibition at 1 µM / inhibition at 100 µM: unidentified adenovirus, Adeno
Description: as §1, §2

[2] = test system: melanoma cell lines (MAL-ME-3M, M14, SK-MEL-5); experiment: NCI 60-cell line panel, melanoma cell lines; type: cell-based, human; conditions: some melanoma cell lines
Text: National Cancer Institute (NCI) tested both of the compounds in their 60-cell line panel (copy of their report available). NCI uses a 48-hour continuous drug exposure protocol. Cell viability and growth are estimated using a sulforhodamine B (SRB) protein assay. The screen is described on the web site: http://dtp.nci.nih.gov. […] However, a mean value of ED50 is at micro molar range against some melanoma cell lines (MAL-ME-3M, M14, SK-MEL-5).

RS virus = experiment: Activity testing in human virus models: RS virus; type: cell-based; conditions: for activity against virus: RS virus, concentrations tested 1 μM and 100 μM; for inhibition at 1 µM / inhibition at 100 µM: human respiratory syncytial virus, RSV
Description: as §1, §2

[3] = test system: Canine parvovirus type 2 (CPV-d); experiment: Parvovirus infectivity screening (animal virus model); type: cell-based; conditions: for antiviral activity against parvovirus (inhibition of infection of cells): drug added simultaneously with CPV, 24 h p.i.
MES-SA/Dx5 = experiment: Typical cytotoxicity screen, MES-SA/Dx5
mice = experiment: In vivo toxicity, preliminary dose range finding study; conditions: single i.p. 100, 50, 25, 12.5 and 6.25 mg/kg, two weeks
Description: The drug was injected once i.p. at doses 100, 50, 25, 12.5 and 6.25 mg/kg to two mice at each dose level. The mice were observed daily and weighed every 3 to 5 days for two weeks.

[4] = test system: cells used for HSV infection; experiment: Toxicity to cells used for HSV infection; type: cell-based; conditions: 100 μM
Description: as §1, §2

influenza B = experiment: Activity testing in human virus models: influenza B; type: cell-based; conditions: for inhibition at 1 µM / inhibition at 100 µM: Influenza B virus, Influenza B; for activity against virus: influenza B, concentrations tested 1 μM and 100 μM
uninfected cells = experiment: Cytotoxicity in the parvovirus model; conditions: for effect on uninfected cells: parvovirus model
[5] = biological target: T1, human topoisomerase II (p170 form) (Homo sapiens, UniProt P11388); experiment: Topoisomerase II drug screening kit; type: biochemical
T1 construct: purchased TopoGEN, Inc, Columbus, Ohio
Description: (§3) In order to understand the mechanism of anticancer activity, the inhibition of topoisomerases by S2502 was studied. The topoisomerase assays were done using Topoisomerase I and II drug screening kits with human topoisomerase I and II (p170 form) enzymes, respectively, according to the manufacturer's (TopoGEN, Inc, Columbus, Ohio) instructions. […] Minimal inhibitory concentrations were 25 μM against Topoisomerase 1 and 50 μM against Topoisomerase II.

[6] = test system: cells used for CBV5 infection; experiment: Toxicity to cells used for CBV5 infection; type: cell-based; conditions: 100 μM
Description: as §1

human topoisomerase I = biological target: T2, human topoisomerase I (Homo sapiens, UniProt P11387); experiment: Topoisomerase I drug screening kit; type: biochemical
T2 construct: purchased TopoGEN, Inc, Columbus, Ohio
T2 sequence (P11387 1-765): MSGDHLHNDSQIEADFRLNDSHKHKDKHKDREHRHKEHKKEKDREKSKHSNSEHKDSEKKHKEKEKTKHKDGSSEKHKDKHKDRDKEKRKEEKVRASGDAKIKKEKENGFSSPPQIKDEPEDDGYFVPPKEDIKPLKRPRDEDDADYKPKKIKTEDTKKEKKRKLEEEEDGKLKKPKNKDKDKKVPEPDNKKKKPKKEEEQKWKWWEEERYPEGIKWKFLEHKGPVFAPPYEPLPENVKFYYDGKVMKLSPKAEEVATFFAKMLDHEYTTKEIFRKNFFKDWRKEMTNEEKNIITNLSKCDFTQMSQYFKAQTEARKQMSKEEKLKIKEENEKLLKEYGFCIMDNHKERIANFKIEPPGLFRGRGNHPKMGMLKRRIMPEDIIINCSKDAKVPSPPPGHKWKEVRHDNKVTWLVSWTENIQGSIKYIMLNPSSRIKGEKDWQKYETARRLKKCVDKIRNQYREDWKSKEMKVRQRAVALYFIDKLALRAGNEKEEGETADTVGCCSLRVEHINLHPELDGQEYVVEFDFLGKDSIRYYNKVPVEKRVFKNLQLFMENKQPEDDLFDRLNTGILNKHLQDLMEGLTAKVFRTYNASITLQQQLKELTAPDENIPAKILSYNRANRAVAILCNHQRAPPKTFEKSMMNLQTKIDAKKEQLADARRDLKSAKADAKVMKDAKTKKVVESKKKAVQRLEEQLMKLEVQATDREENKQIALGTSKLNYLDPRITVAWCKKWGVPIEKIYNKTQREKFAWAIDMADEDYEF
Description: as §3

T1 sequence (P11388 whole entry): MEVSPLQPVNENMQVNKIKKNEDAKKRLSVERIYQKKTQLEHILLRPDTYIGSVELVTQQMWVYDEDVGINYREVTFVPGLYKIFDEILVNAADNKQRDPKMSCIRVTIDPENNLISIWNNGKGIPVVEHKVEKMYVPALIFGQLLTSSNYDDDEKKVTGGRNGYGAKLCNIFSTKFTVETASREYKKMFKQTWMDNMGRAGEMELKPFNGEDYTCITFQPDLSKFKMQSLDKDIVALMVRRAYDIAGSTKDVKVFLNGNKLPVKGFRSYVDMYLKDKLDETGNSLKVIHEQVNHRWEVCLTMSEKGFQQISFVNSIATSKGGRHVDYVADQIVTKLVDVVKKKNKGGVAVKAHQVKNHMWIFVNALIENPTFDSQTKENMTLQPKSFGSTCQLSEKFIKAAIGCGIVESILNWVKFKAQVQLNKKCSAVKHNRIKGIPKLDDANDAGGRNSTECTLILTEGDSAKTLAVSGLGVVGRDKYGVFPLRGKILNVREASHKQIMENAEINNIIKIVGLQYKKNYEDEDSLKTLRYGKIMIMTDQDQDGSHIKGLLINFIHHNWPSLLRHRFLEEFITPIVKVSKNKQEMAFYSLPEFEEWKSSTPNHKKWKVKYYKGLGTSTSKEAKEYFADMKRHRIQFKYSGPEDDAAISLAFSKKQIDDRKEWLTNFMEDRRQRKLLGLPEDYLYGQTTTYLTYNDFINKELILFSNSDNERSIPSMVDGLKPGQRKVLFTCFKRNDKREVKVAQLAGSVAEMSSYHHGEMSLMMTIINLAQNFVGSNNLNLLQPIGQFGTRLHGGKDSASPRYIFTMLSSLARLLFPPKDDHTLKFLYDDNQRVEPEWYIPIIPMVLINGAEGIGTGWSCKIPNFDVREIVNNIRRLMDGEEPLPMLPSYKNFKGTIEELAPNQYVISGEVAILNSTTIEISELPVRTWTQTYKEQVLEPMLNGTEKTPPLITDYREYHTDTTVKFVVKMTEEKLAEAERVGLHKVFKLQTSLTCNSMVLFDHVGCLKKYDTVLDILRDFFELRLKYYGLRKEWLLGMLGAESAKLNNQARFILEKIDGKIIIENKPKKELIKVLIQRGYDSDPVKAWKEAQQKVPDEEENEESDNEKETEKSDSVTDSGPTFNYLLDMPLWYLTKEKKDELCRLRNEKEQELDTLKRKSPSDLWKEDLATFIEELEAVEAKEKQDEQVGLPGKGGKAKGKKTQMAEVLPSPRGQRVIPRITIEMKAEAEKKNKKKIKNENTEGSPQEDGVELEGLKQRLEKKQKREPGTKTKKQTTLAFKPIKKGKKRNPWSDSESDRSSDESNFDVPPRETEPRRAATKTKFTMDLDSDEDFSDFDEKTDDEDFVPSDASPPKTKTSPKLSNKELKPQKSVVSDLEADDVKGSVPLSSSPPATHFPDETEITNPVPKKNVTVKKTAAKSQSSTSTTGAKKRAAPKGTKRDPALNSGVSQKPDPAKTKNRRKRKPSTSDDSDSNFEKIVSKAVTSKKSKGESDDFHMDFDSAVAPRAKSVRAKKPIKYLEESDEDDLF

Row | Compound | anticancer activity (cytotoxicity screen) (MES-SA) | activity against virus (herpes simplex (HSV)) | inhibition % 100 μM (herpes simplex (HSV)) | inhibition at 1 µM (herpes simplex (HSV)) [%] | stability under normal laboratory conditions (Stability) | stability in purification process and bioassays (Stability) | cytotoxic effect [1] | tolerance of control cultivations without virus [1] | inhibition at 1 µM (CBV5 virus) [%] | activity against virus (CBV5 virus) | activity against virus (cytomegalovirus (CMV)) | inhibition at 1 µM (cytomegalovirus (CMV)) [%] | inhibition at 100 µM (cytomegalovirus (CMV)) [%] | activity against virus (adenovirus) | inhibition at 1 µM (adenovirus) [%] | inhibition at 100 µM (adenovirus) [%] | solubility to water at pH 7 | activity against melanoma cell lines [2] | activity against virus (RS virus) | inhibition at 1 µM (RS virus) [%] | further results
1 | CC(=O)/C=C1/C=C2OC(CC(=O)O)Cc3cc4cccc(O)c4c(c32)O1 (stereo not drawn) [S2507] | fail to show anticancer activity | active | toxic | 100 | stable and non-reactive | stable | not found | tolerated well | 100 | active | only S2502 was active against CMV | 0 | 0 | active | 90 | 100 | slightly soluble | active against some melanoma cell lines | active | 100 | pKa (pKa): ~4.6; inhibition at 100 µM (CBV5 virus; CBV5, 100 μM): 100%; inhibition at 100 µM (RS virus): 100%; effect on parvovirus over concentration range ([3]; 5 nM to 500 nM): dose-activity correlation; antiviral activity against parvovirus (inhibition of infection of cells) [3]: remarkable antiviral activity; also recorded: partially inhibit the infection; anticancer activity (cytotoxicity screen) (MES-SA/Dx5): fail to show anticancer activity; effect on the weight of the mice (mice): no effect; outer signs of general illness (mice): no outer signs of general illness were noticed; toxicity to cells [4]: toxic; inhibition at 1 µM (influenza B): 100%; inhibition at 100 µM (influenza B): 100%; activity against virus (influenza B): active; cytotoxic properties (uninfected cells; highest concentration studied, 500 nM): did not exhibit cytotoxic properties; effect on uninfected cells (uninfected cells): without disturbing the uninfected cells
2 | COC(=O)CC1Cc2cc3cccc(O)c3c3c2C(=C/C(=C/C(C)=O)O3)O1 (stereo not drawn) [S2502] | fail to show anticancer activity | active | toxic | 100 | stable and non-reactive | stable | not found | tolerated well | 100 | active | active | 100 | 100 | active | 90 | 100 | not soluble | active against some melanoma cell lines | active | 100 | Minimal inhibitory concentration [5]: 50 µM (≈ 18.3 µg/mL); toxicity to cells [6]: toxic; inhibition % 100 μM (CBV5 virus; CBV5, 100 μM): toxic; inhibition at 100 µM (RS virus): 100%; antiviral activity against parvovirus (inhibition of infection of cells) [3]: remarkable antiviral activity; also recorded: partially inhibit the infection; anticancer activity (cytotoxicity screen) (MES-SA/Dx5): fail to show anticancer activity; Minimal inhibitory concentration (human topoisomerase I): 25 µM (≈ 9.16 µg/mL); toxicity to cells [4]: toxic; inhibition at 1 µM (influenza B): 100%; inhibition at 100 µM (influenza B): 100%; activity against virus (influenza B): active; effect on uninfected cells (uninfected cells): without disturbing the uninfected cells
